In ChEMBL document CHEMBL5550136, “Total synthesis/semi-synthesis of natural isopentenyl flavonoids with inhibitory activity on NLRP3 inflammasome” (Bioorg Med Chem Lett, 2024) one finds IC50, inhibition and Activity data, which are given here for ten molecules.

Activity calls are given as the source filed them. The calls are words filed in the database; no cut-off is given here.

The target in experiment [1] is NACHT, LRR and PYD domains-containing protein 3 (Mus musculus, UniProt Q8R4B8). Put plainly: Inhibition of NLRP3 inflammasome activation in mouse BMDM cells assessed as reduction in IL-1beta release by ELISA. The class given is cell-based.
NACHT, LRR and PYD domains-containing protein 3, sequence (Q8R4B8 whole entry, the tested form may be a part): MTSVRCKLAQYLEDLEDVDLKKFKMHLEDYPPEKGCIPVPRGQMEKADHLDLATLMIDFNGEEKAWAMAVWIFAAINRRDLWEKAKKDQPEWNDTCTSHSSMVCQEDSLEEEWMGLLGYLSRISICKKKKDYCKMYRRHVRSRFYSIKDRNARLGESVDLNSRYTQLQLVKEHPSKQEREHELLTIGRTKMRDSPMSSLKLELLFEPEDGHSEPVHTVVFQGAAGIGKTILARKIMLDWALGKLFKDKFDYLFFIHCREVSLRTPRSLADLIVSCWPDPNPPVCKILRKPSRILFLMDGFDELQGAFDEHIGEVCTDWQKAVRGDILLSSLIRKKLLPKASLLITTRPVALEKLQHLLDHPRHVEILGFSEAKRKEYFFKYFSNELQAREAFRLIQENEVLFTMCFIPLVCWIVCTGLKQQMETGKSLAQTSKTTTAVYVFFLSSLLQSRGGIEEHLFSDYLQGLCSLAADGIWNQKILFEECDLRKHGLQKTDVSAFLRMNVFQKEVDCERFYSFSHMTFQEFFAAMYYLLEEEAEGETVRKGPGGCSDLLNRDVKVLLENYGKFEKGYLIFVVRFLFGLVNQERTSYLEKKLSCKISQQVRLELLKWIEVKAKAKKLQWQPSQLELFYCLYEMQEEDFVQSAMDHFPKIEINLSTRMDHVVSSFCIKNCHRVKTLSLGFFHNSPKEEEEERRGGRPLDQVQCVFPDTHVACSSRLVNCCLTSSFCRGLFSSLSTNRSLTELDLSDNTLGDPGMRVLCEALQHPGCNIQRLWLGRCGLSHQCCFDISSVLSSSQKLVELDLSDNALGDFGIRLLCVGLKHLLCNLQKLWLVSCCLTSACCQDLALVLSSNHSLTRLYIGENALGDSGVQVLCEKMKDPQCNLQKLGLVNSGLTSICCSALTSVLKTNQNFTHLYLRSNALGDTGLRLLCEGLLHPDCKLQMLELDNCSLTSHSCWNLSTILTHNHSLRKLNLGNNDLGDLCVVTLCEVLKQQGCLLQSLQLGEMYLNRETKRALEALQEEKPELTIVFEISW
The target of experiment [2] is NACHT, LRR and PYD domains-containing protein 3 (Mus musculus) (UniProt Q8R4B8). Put plainly: Inhibition of NLRP3 inflammasome activation in mouse BMDM cells assessed as inhibition of caspase-1 release by immunoblotting analysis. The experiment is classed as cell-based.
NACHT, LRR and PYD domains-containing protein 3 (Mus musculus), sequence (Q8R4B8 whole entry, the tested form may be a part): as above
For experiment [3], the system named is BMDM. Put plainly: Effect on pro-caspase-1 protein expression in mouse BMDM cells. The experiment is classed as functional, cell-based.
For experiment [4], the system named is BMDM. Put plainly: Effect on NLRP3 protein expression in mouse BMDM cells. The class given is functional, cell-based.
Experiment [5] deals with BMDM. Put plainly: Effect on pro-IL-1beta protein expression in mouse BMDM cells. The class given is functional, cell-based.
In experiment [6] the target is NACHT, LRR and PYD domains-containing protein 3 (Mus musculus) (UniProt Q8R4B8). Put plainly: Inhibition of NLRP3 inflammasome activation in mouse BMDM cells assessed as inhibition of mature IL-1beta release by immunoblotting analysis. The experiment is classed as cell-based.

Turning to `CC(C)=CCc1c(O)cc2oc(-c3ccc(O)c(O)c3)c(O)c(=O)c2c1O` [GANCAONIN P], in experiment [1], the IC50 came to 20.4 µM.

Turning to `COc1ccc(-c2cc(=O)c3c(O)cc(O)c(CC=C(C)C)c3o2)cc1`, the 50% inhibitory concentration (IC50) in experiment [1] came out at 11.4 µM.

As for `COc1cc(-c2cc(=O)c3c(O)cc4c(c3o2)C=CC(C)(C)O4)ccc1O`, in experiment [1], the IC50 was above 100 µM.

For `O=c1c(O)c(-c2ccc(O)c(O)c2)oc2cc(O)cc(O)c12` [QUERCETIN], the IC50 in experiment [1] came out at 37.1 µM.

`COc1cc(C2CC(=O)c3c(O)cc(O)c(CC=C(C)C)c3O2)c(O)cc1O` (stereo not given) [KUSHENOL W]: the IC50 in experiment [1] was 17.3 µM.

For the molecule `CC(C)=CCC/C(C)=C/Cc1c(O)cc2oc(-c3ccc(O)cc3)c(O)c(=O)c2c1O` [MACARANGIN], the inhibition result in experiment [2] and in experiment [6] was “Dose-Dependent Effect” throughout. Further, the outcome in experiment [3], in experiment [4] and in experiment [5] was inactive. For the same molecule, the IC50 in experiment [1] was found to be 3.4 µM.

In the case of `COc1cc(-c2cc(=O)c3c(O)cc(O)c(CC=C(C)C)c3o2)ccc1O`, the IC50 in experiment [1] worked out at 41.2 µM.

Turning to `CC(C)=CCc1c(O)cc2oc(-c3ccc(O)cc3)c(O)c(=O)c2c1O` [LICOFLAVONOL], in experiment [1], the IC50 was 8.5 µM.

Take `O=c1c(O)c(-c2ccc(O)cc2)oc2cc(O)cc(O)c12` [KAEMPFEROL]: the IC50 in experiment [1] is above 100 µM.

For `COc1ccc(-c2cc(=O)c3c(O)cc4c(c3o2)C=CC(C)(C)O4)cc1`, the IC50 in experiment [1] was above 100 µM.
